Experimental data taken from US4100346A, “Certain 7(o-amino-methyl- or methylaminomethylphenyl- or cyclohexadienyl- or thienylacetamide)-3[1-carboxymethyl-(or ethyl- or propyl-)-tetrazol-5-ylthiomethyl]-3-cephem-4-carboxylic acids” (Bristol-Myers Company, priority 1976, dated 1978).
In brackets after ≈: the same amount, converted by molar mass. Read-outs that look alike come from different tables or passages of the source.

Key:
Bacteroides Fragilis = test: Growth inhibitory activity, antibiotic dilution technique (obligate anaerobes); format: cell-based; conditions: 3 strains, geometric mean when applicable, read-out: Minimum inhibitory concentration
Experimental: (§1) Antibiotic spectrum. […] Procedures were as follows:
c. Obligate anaerobes. The assay was performed on solid medium, consisting of Brain Heart Infusion Broth (BBL) supplemented with 5% defibrinated sheep blood and 1% Ionagar (Colab). […] The plates were incubated at 37° C. for 48 hours under the oxygen-free conditions attained with a Gas-Pak (BBL) Brewer jar system.

Citrobacter sp. = test: Intramuscular treatment of systemically infected mice; format: in vivo; conditions: im, Citrobacter sp. strain 1, challenge 5×10^6 -2×10^7, treated 1 and 3.5 hours after infection, read-out: PD50 /treatment
Description: (§2) Treatment of Systemically Infected Mice. The procedures were identical with those published previously [Leitner et al., BL-S640, a Cephalosporin With a Broad Spectrum of Antibacterial Activity: Bioavailability and Therapeutic Properties in Rodents, Antimicrob. Agents Chemother. 7:306-310, (1975)], except that:
(§3) (a) the hog gastric mucin used in infections with Staphylococcus aureus No. 2 was purchased from American Laboratories, Inc., Omaha, Neb. (lot No. 154163) and b) that the medium used to suspend all other organisms contained 3% (rather than 4%) hog gastric mucin (type 1701W, Wilson Laboratories, Inc., Park Forest South, Ill.).
(§4) *Animals were treated twice; 1 and 3.5 hours after infection.

Escherichia coli = test: as above; format: in vivo; conditions: im, 3.5 h, read-out: PD50 /treatment
Description: as §2, §3, §4

Klebsiella pneumoniae = test: as above; format: in vivo; conditions: im, 3.5 h, read-out: PD50 /treatment
Description: as §2, §3, §4

Proteus mirabilis = test: as above; format: in vivo; conditions: im, 3.5 h, read-out: PD50 /treatment
Description: as §2, §3, §4

Proteus morganii = test: as above; format: in vivo; conditions: Morganella morganii, im, 3.5 h, read-out: PD50 /treatment
Description: as §2, §3, §4

Proteus rettgeri [1] = test: as above; format: in vivo; conditions: Providencia rettgeri, im, Proteus rettgeri strain 4, challenge 2×10^6 -3×10^6, treated 1 and 3.5 hours after infection, read-out: PD50 /treatment
Description: as §2, §3, §4

Proteus vulgaris = test: as above; format: in vivo; conditions: im, 3.5 h, read-out: PD50 /treatment
Description: as §2, §3, §4

Providencia stuartii = test: as above; format: in vivo; conditions: im, 3.5 h, read-out: PD50 /treatment
Description: as §2, §3, §4

[2] = Recovery in urine after intramuscular injection; conditions: rat, im, 10 mg/kg
Arizona hinshawii = test: Growth inhibitory activity, antibiotic dilution technique; conditions: Salmonella enterica, read-out: Minimum inhibitory concentration
Serratia marcescens = test: as above; conditions: read-out: Minimum inhibitory concentration
Vibrio cholerae = test: as above; conditions: read-out: Minimum inhibitory concentration
[3] = tested on: Bordetella bronchiseptica; test: as above; conditions: read-out: Minimum inhibitory concentration
Proteus rettgeri [4] = test: as above; conditions: for inhibition at 16 µg/mL: Providencia rettgeri, read-out: percent of strains inhibited
Neisseria gonorrhoeae = test: as above
Enterobacter aerogenes = test: Effect of inoculum size on susceptibility of Enterobacteriaceae; conditions: Klebsiella aerogenes, read-out: Minimum Inhibitory Concentration, Enterobacter aerogenes strain 1
[5] = Antibiotic concentration in blood after intramuscular injection; conditions: mouse, im; for Cmax: 20 mg/kg
Clostridium sp. = test: microbe, parasite or virus in culture; format: cell-based
Experimental: as §1
c. Obligate anaerobes. The assay was performed on solid medium, consisting of Brain Heart Infusion Broth (BBL) supplemented with 5% defibrinated sheep blood and 1% Ionagar (Colab).

[6] = target: β-lactamase Class I Type a, Enterobacter cloacae 214 (Enterobacter cloacae, UniProt P05364); format: biochemical
Experimental: (§5) Miscellaneous. Methods for determining bactericidal activity and susceptibility to cell-free β-lactamase were those previously used; Leitner et al., BL-S640, A Cephalosporin With a Broad Spectrum of Antibacterial Activity: Properties in vitro, Antimicrob. Agents Chemother.
(§6) Susceptibility to β-lactamase. Susceptibility to enzymic hydrolysis was assessed by determining relative rates of hydrolysis by cell-free preparations of various β-lactamases (Table 6).

[7] = target: β-lactamase Class I Type b, Escherichia coli 719 (Escherichia coli, UniProt P00811); format: biochemical
Experimental: as §5, §6

[8] = tested on: β-lactamase Class II Type a, Proteus mirabilis 1266; format: biochemical
Experimental: as §5, §6

[9] = target: T1, β-lactamase Class III Type a, Escherichia coli TEM (Escherichia coli, UniProt P62593); format: biochemical
T1 construct: cell-free preparations of various β-lactamases; endogenous in cells; host or cells: Escherichia coli strain TEM
Experimental: as §5, §6

[10] = tested on: β-lactamase Class IV Type a, Klebsiella pneumoniae 53; format: biochemical
Experimental: as §5, §6

[11] = tested on: β-lactamase Class IV Type b, Klebsiella pneumoniae 1169; format: biochemical
Experimental: as §5, §6

[12] = Escherichia coli strain 1, challenge 2×10^5 organisms, treated 1 and 3.5 hours after infection
[13] = Escherichia coli strain 8, challenge 6×10^5 -4×10^6, treated 1 and 3.5 hours after infection
[14] = Escherichia coli strain 9, challenge 7×10^3 -2×10^4, treated 1 and 3.5 hours after infection
[15] = Klebsiella pneumoniae strain 1, challenge 4×10^4 -5×10^4, treated 1 and 3.5 hours after infection
[16] = Klebsiella pneumoniae strain 7, challenge 9×10^2 -1×10^3, treated 1 and 3.5 hours after infection
[17] = Proteus mirabilis strain 1, challenge 7×10^6 -9×10^6, treated 1 and 3.5 hours after infection
[18] = Proteus mirabilis strain 5, challenge 9×10^5 -3×10^6, treated 1 and 3.5 hours after infection
[19] = Proteus mirabilis strain 8, challenge 6×10^5 -4×10^6, treated 1 and 3.5 hours after infection
[20] = Proteus morganii strain 1, challenge 1×10^5 -4×10^5, treated 1 and 3.5 hours after infection
[21] = Proteus morganii strain 2, challenge 2×10^6 -3×10^6, treated 1 and 3.5 hours after infection
[22] = Proteus vulgaris strain 1, challenge 1×10^6 -2×10^6, treated 1 and 3.5 hours after infection
[23] = Proteus vulgaris strain 3, challenge 4×10^5, treated 1 and 3.5 hours after infection
[24] = Providencia stuartii strain 2, challenge 1×10^6 ×5×10^6, treated 1 and 3.5 hours after infection
[25] = Providencia stuartii strain 3, challenge 2×10^7, treated 1 and 3.5 hours after infection
[26] = read-out: Minimum inhibitory concentration

β-lactamase Class I Type b, Escherichia coli 719, sequence (P00811 20-377): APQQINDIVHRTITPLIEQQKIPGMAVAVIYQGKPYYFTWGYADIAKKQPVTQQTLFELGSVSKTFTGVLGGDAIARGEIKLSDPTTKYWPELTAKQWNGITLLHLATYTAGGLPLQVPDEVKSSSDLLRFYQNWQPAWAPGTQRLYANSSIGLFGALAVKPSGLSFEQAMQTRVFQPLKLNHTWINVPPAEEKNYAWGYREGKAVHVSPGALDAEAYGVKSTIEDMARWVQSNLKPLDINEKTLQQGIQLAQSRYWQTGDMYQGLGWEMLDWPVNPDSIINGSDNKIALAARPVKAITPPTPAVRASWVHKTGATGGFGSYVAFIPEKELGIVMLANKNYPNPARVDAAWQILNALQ
T1 sequence (P62593 24-286 limits assumed): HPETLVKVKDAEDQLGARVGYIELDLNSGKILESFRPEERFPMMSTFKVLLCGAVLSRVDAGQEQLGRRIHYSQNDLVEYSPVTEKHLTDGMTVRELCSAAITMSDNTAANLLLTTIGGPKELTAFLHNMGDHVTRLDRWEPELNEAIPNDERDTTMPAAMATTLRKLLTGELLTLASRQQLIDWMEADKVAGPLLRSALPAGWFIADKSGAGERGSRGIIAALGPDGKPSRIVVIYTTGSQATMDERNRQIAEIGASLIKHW
β-lactamase Class I Type a, Enterobacter cloacae 214, sequence (P05364 21-381): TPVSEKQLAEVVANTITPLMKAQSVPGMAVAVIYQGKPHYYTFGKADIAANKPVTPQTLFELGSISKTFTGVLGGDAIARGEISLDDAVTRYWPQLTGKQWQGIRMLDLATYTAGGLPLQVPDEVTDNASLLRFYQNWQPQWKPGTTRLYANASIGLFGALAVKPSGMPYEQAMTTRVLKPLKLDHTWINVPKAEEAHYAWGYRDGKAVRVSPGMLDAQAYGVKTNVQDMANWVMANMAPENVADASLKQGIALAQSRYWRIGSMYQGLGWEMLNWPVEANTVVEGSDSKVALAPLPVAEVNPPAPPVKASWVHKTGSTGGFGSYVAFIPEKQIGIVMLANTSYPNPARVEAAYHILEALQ

| SMILES | MIC (Bacteroides Fragilis) | ED50 (Citrobacter sp.) | ED50 (Escherichia coli; [12]) | ED50 (Escherichia coli; [13]) | ED50 (Escherichia coli; [14]) | ED50 (Klebsiella pneumoniae; [15]) | ED50 (Klebsiella pneumoniae; [16]) | ED50 (Proteus mirabilis; [17]) | ED50 (Proteus mirabilis; [18]) | ED50 (Proteus mirabilis; [19]) | ED50 (Proteus morganii; [20]) | ED50 (Proteus morganii; [21]) | ED50 (Proteus rettgeri [1]) | ED50 (Proteus vulgaris; [22]) | ED50 (Proteus vulgaris; [23]) | ED50 (Providencia stuartii; [24]) | ED50 (Providencia stuartii; [25]) | MIC (Arizona hinshawii) | MIC (Serratia marcescens) | MIC (Vibrio cholerae) | other results |
| --- | --- | --- | --- | --- | --- | --- | --- | --- | --- | --- | --- | --- | --- | --- | --- | --- | --- | --- | --- | --- | --- |
| Cc1nnc(SCC2=C(C(=O)O)N3C(=O)[C@@H](NC(=O)Cn4cnnn4)[C@H]3SC2)s1 [Cefazolin] | 50 µg/mL (≈ 110 µM) | 110 mg/kg | 1.9 mg/kg | 4.9 mg/kg | 5.3 mg/kg | 16 mg/kg | 94 mg/kg | 16 mg/kg | 6.2 mg/kg | 6.5 mg/kg | 62 mg/kg | 140 mg/kg | 9.5 mg/kg | 11 mg/kg | 8 mg/kg | 50 mg/kg | 70 mg/kg | 1 µg/mL (≈ 2.2 µM) | > 125 µg/mL | 4 µg/mL (≈ 8.8 µM) | dose excreted at 24 h [2]: 75%; MIC [3]: 125 µg/mL (≈ 275 µM); inhibition at 16 µg/mL (Proteus rettgeri [4]): 44%; susceptibility of Neisseria gonorrhoeae (Neisseria gonorrhoeae): equally susceptible; MIC (Enterobacter aerogenes; A, Inoculum of 10^2 organisms): 16 µg/mL (≈ 35.2 µM); MIC (Enterobacter aerogenes; B, Inoculum of 10^6 organisms): > 250 µg/mL; Cmax [5]: 31000 ng/mL |
| O=C(Cc1cccs1)N[C@@H]1C(=O)N2C(C(=O)[O-])=C(C[n+]3ccccc3)CS[C@H]12 [Cephaloridine] | 79 µg/mL (≈ 190 µM) | 36 mg/kg | 2.6 mg/kg | 2.2 mg/kg | 13 mg/kg | 8 mg/kg | 41 mg/kg | 19 mg/kg | 4 mg/kg | 5.5 mg/kg | 180 mg/kg | 230 mg/kg | 66 mg/kg | 6.4 mg/kg | 10 mg/kg | 180 mg/kg | 150 mg/kg | 2 µg/mL (≈ 4.81 µM) | > 125 µg/mL | 16 µg/mL (≈ 38.5 µM) | MIC (Clostridium sp.; [26]): 0.63 µg/mL (≈ 1.52 µM); Relative Rate of Hydrolysis (benzylpenicillin = 100) [6]: 7900; Relative Rate of Hydrolysis (benzylpenicillin = 100) [7]: 370; Relative Rate of Hydrolysis (benzylpenicillin = 100) [8]: 2; Relative Rate of Hydrolysis (benzylpenicillin = 100) [9]: 93; Relative Rate of Hydrolysis (benzylpenicillin = 100) [10]: 100; Relative Rate of Hydrolysis (benzylpenicillin = 100) [11]: 50; dose excreted at 24 h [2]: 59%; MIC [3]: 32 µg/mL (≈ 77 µM); percent of strains inhibited (Proteus rettgeri [4]): negligible; MIC (Enterobacter aerogenes; A, Inoculum of 10^2 organisms): 63 µg/mL (≈ 152 µM); MIC (Enterobacter aerogenes; B, Inoculum of 10^6 organisms): > 250 µg/mL; half-life [5]: 22 min; Cmax [5]: 23000 ng/mL |
| CC(=O)OCC1=C(C(=O)O)N2C(=O)[C@@H](NC(=O)Cc3cccs3)[C@H]2SC1 [Cephalothin] | 125 µg/mL (≈ 315 µM) | > 340 mg/kg | 42 mg/kg | 97 mg/kg | 180 mg/kg | 94 mg/kg | > 380 mg/kg | 41 mg/kg | 11 mg/kg | 14 mg/kg | > 350 mg/kg | > 400 mg/kg | 140 mg/kg | 11 mg/kg | 17 mg/kg | > 380 mg/kg | 160 mg/kg | 2.8 µg/mL (≈ 7.06 µM) | > 125 µg/mL | 1 µg/mL (≈ 2.52 µM) | MIC (Clostridium sp.; [26]): 0.5 µg/mL (≈ 1.26 µM); Relative Rate of Hydrolysis (benzylpenicillin = 100) [6]: 2100; Relative Rate of Hydrolysis (benzylpenicillin = 100) [7]: 480; Relative Rate of Hydrolysis (benzylpenicillin = 100) [8]: < 1; Relative Rate of Hydrolysis (benzylpenicillin = 100) [9]: 9; Relative Rate of Hydrolysis (benzylpenicillin = 100) [10]: 8; Relative Rate of Hydrolysis (benzylpenicillin = 100) [11]: 43; MIC [3]: 8 µg/mL (≈ 20.2 µM); percent of strains inhibited (Proteus rettgeri [4]): negligible; susceptibility of Neisseria gonorrhoeae (Neisseria gonorrhoeae): equally susceptible; MIC (Enterobacter aerogenes; A, Inoculum of 10^2 organisms): 32 µg/mL (≈ 80.7 µM); MIC (Enterobacter aerogenes; B, Inoculum of 10^6 organisms): > 250 µg/mL |
| NCc1ccccc1CC(=O)N[C@@H]1C(=O)N2C(C(=O)O)=C(CSc3nnnn3CC(=O)O)CS[C@H]12 [Example 1] | 100 µg/mL (≈ 192 µM) | 3.5 mg/kg | 0.37 mg/kg | 1.5 mg/kg | 2.2 mg/kg | 2 mg/kg | 22 mg/kg | 1.4 mg/kg | 0.62 mg/kg | 0.59 mg/kg | 19 mg/kg | 39 mg/kg | 2.4 mg/kg | 1.8 mg/kg | 2.5 mg/kg | 5.9 mg/kg | 8 mg/kg | 0.13 µg/mL (≈ 0.25 µM) | > 125 µg/mL | 4 µg/mL (≈ 7.7 µM) | MIC (Clostridium sp.; 48 h, read-out: concentration inhibiting all strains): 2 µg/mL (≈ 3.85 µM); MIC (Clostridium sp.; [26]): 2 µg/mL (≈ 3.85 µM); Relative Rate of Hydrolysis (benzylpenicillin = 100) [6]: 1100; Relative Rate of Hydrolysis (benzylpenicillin = 100) [7]: 190; Relative Rate of Hydrolysis (benzylpenicillin = 100) [8]: < 1; Relative Rate of Hydrolysis (benzylpenicillin = 100) [9]: 2; Relative Rate of Hydrolysis (benzylpenicillin = 100) [10]: 6; Relative Rate of Hydrolysis (benzylpenicillin = 100) [11]: 30; dose excreted at 24 h [2]: 65%; MIC [3]: 125 µg/mL (≈ 241 µM); inhibition at 16 µg/mL (Proteus rettgeri [4]): 78%; susceptibility of Neisseria gonorrhoeae (Neisseria gonorrhoeae): equally susceptible; MIC (Enterobacter aerogenes; A, Inoculum of 10^2 organisms): 1 µg/mL (≈ 1.92 µM); MIC (Enterobacter aerogenes; B, Inoculum of 10^6 organisms): > 250 µg/mL; Tmax [5]: 15 min; half-life [5]: 33 min; Cmax [5]: 36000 ng/mL |
